According to patent US8053577B2, “Derivatives of 5,9-methanocycloocta[b]pyridin-2-(1H)-one, their preparation and use as analgesics” (priority 2006, dated 2011):

System: mice
Experiment: Analgesic effect of intragastric administration on mice measured with hot-plate test
Type: in vivo, ICR mice
Details: x ± s, n = 10; for pain threshold after administration / pain threshold before administration: Table 3 screening; for pain threshold after administration: 1 hour; for pain threshold before administration: group dosed 0.6 mg/kg intragastric
Experimental: The analgesic effect with a single dose of the compounds represented by Formula I is preliminarily screened at single time point through hot-plate test, with fortanodyn and aspirin as positive controls. All of the compounds are administered intragastrically.
On the basis of preliminary screening results, several representative compounds were selected to test their analgesic duration, and a part of the results is listed in Table 4. The results illustrate that the analgesic duration of most compounds is longer than 2 hours after a single oral administration, and that some of the compounds have analgesic duration lasting longer than 4 hours.
Furthermore, the dose-effect relationship on an analgesic model of two compounds was tested and the results are shown in Table 5.
Analgesic effect of intragastric administration on mice measured with hot-plate test
Female ICR mice, weight 20+2 g, were purchased from Department of Laboratory Animal Science, Beijing University, animal license number: SCXK 2002-0001.
A) Samples: samples were prepared as mixtures with 0.9% NaCl solution for intragastric administration to mice.
B) Fortanodyn: 30 mg/pill (TianJin LiSheng Pharmaceutical Co. Ltd, lot number: 0201001), 1.5 mg/mL solution was prepared with 0.9% NaCl solution for intragastric administration to mice.
1) Hot-plate test on mice was employed. A thermostatic water bath was adjusted at 55±0.5° C., the bottom of metal plates contacted water surface and used as stimuli after heating. The time span(s) from the point when the mouse was placed onto the hot-plate to the time when the mouse started to lick its metapedes was determined as its pain threshold, which was recorded by stopwatch. Female mice with a weight of 20±2 g were used. The pain threshold of every mouse was measured twice before administration, and the qualified mice are the ones whose average pain threshold was less than 30 seconds.
The qualified mice were randomly grouped with 10 mice in each group. The pain threshold before administration was determined as the basic pain threshold. To the medication administration team, drugs of different dose were given through intragastric administration, whereas to the control group, 0.9% NaCl solution was given. The administration volume was 0.2 mL for every 10 g body weight. The pain threshold of each group was measured at 1 hour after administration.
After administration the pain threshold of each group at different time was measured. The experimental data was statistically treated with t-test using SPSS10 statistics software.

Structure (SMILES) | pain threshold after administration (0.6 mg/kg intragastric) [s] | pain threshold before administration (baseline) [s] | also measured
CC(=O)Oc1ccccc1C(=O)O [Aspirin, reference compound] |  |  | pain threshold after administration (100 mg/kg intragastric): 18.2 ± 3.71 s; pain-threshold after administration (time course, 100 mg/kg intragastric, 30 min): 18.1 ± 5.40 s; pain-threshold after administration (time course, 100 mg/kg intragastric, 60 min): 18.0 ± 3.80 s; pain-threshold after administration (time course, 100 mg/kg intragastric, 120 min): 14.0 ± 3.63 s; pain-threshold after administration (time course, 100 mg/kg intragastric, 180 min): 14.3 ± 3.62 s
C/C=C1\[C@H]2C=C(C)C[C@]1(/N=C/C=C/c1cccc(C)c1)c1ccc(=O)[nH]c1C2 [Example 4, (5R,9R,11E)-5-(3-(3-methylphenyl)prop-2-en-1-ylideneamino)-11-ethylidene-5,6,9,10-tetrahydro-7-methyl-5,9-methanocycloocta[b]pyridin-2(1H)-one] | 27.0 ± 5.40 | 12.2 ± 3.31 | 
C/C=C1\[C@H]2C=C(C)C[C@]1(/N=C/C=C/c1ccccc1C)c1ccc(=O)[nH]c1C2 [Example 5, (5R,9R,11E)-5-(3-(2-methylphenyl)prop-2-en-1-ylideneamino)-11-ethylidene-5,6,9,10-tetrahydro-7-methyl-5,9-methanocycloocta[b]pyridin-2(1H)-one] | 27.6 ± 6.22 | 12.8 ± 3.12 | 
C/C=C1\[C@H]2C=C(C)C[C@]1(/N=C/C=C/c1ccc(C)cc1)c1ccc(=O)[nH]c1C2 [Example 6, (5R,9R,11E)-5-(3-(4-methylphenyl)prop-2-en-1-ylideneamino)-11-ethylidene-5,6,9,10-tetrahydro-7-methyl-5,9-methanocycloocta[b]pyridin-2(1H)-one] |  |  | pain-threshold after administration (time course, 0.76 mg/kg intragastric, 30 min): 24.8 ± 8.77 s; pain-threshold after administration (time course, 0.76 mg/kg intragastric, 60 min): 31.9 ± 7.76 s; pain-threshold after administration (time course, 0.76 mg/kg intragastric, 120 min): 22.6 ± 8.37 s; pain-threshold after administration (time course, 0.76 mg/kg intragastric, 180 min): 25.9 ± 11.50 s; pain-threshold after administration (time course, 0.76 mg/kg intragastric, 240 min): 24.5 ± 10.55 s; pain-threshold before administration (time course, group dosed 0.76 mg/kg intragastric, baseline): 11.6 ± 4.14 s
C/C=C1\[C@H]2C=C(C)C[C@]1(/N=C/C=C(\C)c1ccccc1)c1ccc(=O)[nH]c1C2 [Example 7, (5R,9R,11E)-5-(3-methyl-3-phenylprop-2-en-1-ylideneamino)-11-ethylidene-5,6,9,10-tetrahydro-7-methyl-5,9-methanocycloocta[b]pyridin-2(1H)-one] | 24.6 ± 5.61 | 12.4 ± 2.33 | 
C/C=C1\[C@H]2C=C(C)C[C@]1(/N=C/C=C/C=C/c1ccccc1)c1ccc(=O)[nH]c1C2 [Example 8, (5R,9R,11E)-5-(5-phenylpenta-2,4-dien-1-ylideneamino)-11-ethylidene-5,6,9,10-tetrahydro-7-methyl-5,9-methanocycloocta[b]pyridin-2(1H)-one] | 23.0 ± 3.52 |  | 
C/C=C1\[C@H]2C=C(C)C[C@]1(/N=C/C=C/C=C/C=C/c1ccccc1)c1ccc(=O)[nH]c1C2 [Example 9, (5R,9R,11E)-5-(7-phenylhepta-2,4,6-trien-1-ylideneamino)-11-ethylidene-5,6,9,10-tetrahydro-7-methyl-5,9-methanocycloocta[b]pyridin-2(1H)-one] | 25.8 ± 4.35 | 12.4 ± 2.58 | 
C/C=C1\[C@H]2C=C(C)C[C@]1(N=CC(Br)=Cc1ccccc1)c1ccc(=O)[nH]c1C2 [Example 10, (5R,9R,11E)-5-(2-bromo-3-phenylprop-2-en-1-ylideneamino)-11-ethylidene-5,6,9,10-tetrahydro-7-methyl-5,9-methanocycloocta[b]pyridin-2(1H)-one] | 21.0 ± 3.16 | 11.8 ± 3.54 | 
C/C=C1\[C@H]2C=C(C)C[C@]1(/N=C/C=C/c1cccc(Br)c1)c1ccc(=O)[nH]c1C2 [Example 11, (5R,9R,11E)-5-(3-(3-bromophenyl)prop-2-en-1-ylideneamino)-11-ethylidene-5,6,9,10-tetrahydro-7-methyl-5,9-methanocycloocta[b]pyridin-2(1H)-one] | 23.0 ± 4.98 | 12.8 ± 3.12 | 
C/C=C1\[C@H]2C=C(C)C[C@]1(/N=C/C=C/c1ccccc1Br)c1ccc(=O)[nH]c1C2 [Example 12, (5R,9R,11E)-5-(3-(2-bromophenyl)prop-2-en-1-ylideneamino)-11-ethylidene-5,6,9,10-tetrahydro-7-methyl-5,9-methanocycloocta[b]pyridin-2(1H)-one] | 19.6 ± 4.03 | 12.4 ± 2.58 | 
C/C=C1\[C@H]2C=C(C)C[C@]1(/N=C/C=C/c1ccc(Br)cc1)c1ccc(=O)[nH]c1C2 [Example 13, (5R,9R,11E)-5-(3-(4-bromophenyl)prop-2-en-1-ylideneamino)-11-ethylidene-5,6,9,10-tetrahydro-7-methyl-5,9-methanocycloocta[b]pyridin-2(1H)-one] | 22.0 ± 4.86 |  | 
C/C=C1\[C@H]2C=C(C)C[C@]1(/N=C/C=C/c1cccc(Cl)c1)c1ccc(=O)[nH]c1C2 [Example 15, (5R,9R,11E)-5-(3-(3-chlorophenyl)prop-2-en-1-ylideneamino)-11-ethylidene-5,6,9,10-tetrahydro-7-methyl-5,9-methanocycloocta[b]pyridin-2(1H)-one] | 28.8 ± 3.92 | 13.0 ± 3.63 | 
C/C=C1\[C@H]2C=C(C)C[C@]1(/N=C/C=C/c1ccccc1Cl)c1ccc(=O)[nH]c1C2 [Example 16, (5R,9R,11E)-5-(3-(2-chlorophenyl)prop-2-en-1-ylideneamino)-11-ethylidene-5,6,9,10-tetrahydro-7-methyl-5,9-methanocycloocta[b]pyridin-2(1H)-one] | 27.4 ± 5.16 | 13.2 ± 3.76 | 
C/C=C1\[C@H]2C=C(C)C[C@]1(/N=C/C=C/c1ccc(OC)cc1)c1ccc(=O)[nH]c1C2 [Example 17, (5R,9R,11E)-5-(3-(4-methoxylphenyl)prop-2-en-1-ylideneamino)-11-ethylidene-5,6,9,10-tetrahydro-7-methyl-5,9-methanocycloocta[b]pyridin-2(1H)-one] | 24.6 ± 5.46 | 12.2 ± 2.14 | 
C/C=C1\[C@H]2C=C(C)C[C@]1(/N=C/C=C/c1ccccc1OC)c1ccc(=O)[nH]c1C2 [Example 18, (5R,9R,11E)-5-(3-(2-methoxylphenyl)prop-2-en-1-ylideneamino)-11-ethylidene-5,6,9,10-tetrahydro-7-methyl-5,9-methanocycloocta[b]pyridin-2(1H)-one] | 26.0 ± 5.01 | 13.0 ± 3.03 | 
C/C=C1\[C@H]2C=C(C)C[C@]1(/N=C/C=C/c1cccc(OC)c1)c1ccc(=O)[nH]c1C2 [Example 19, (5R,9R,11E)-5-(3-(3-methoxylphenyl)prop-2-en-1-ylideneamino)-11-ethylidene-5,6,9,10-tetrahydro-7-methyl-5,9-methanocycloocta[b]pyridin-2(1H)-one] | 18.6 ± 3.44 | 12.0 ± 2.53 | 
C/C=C1\[C@H]2C=C(C)C[C@]1(N=CC=Cc1ccncc1)c1ccc(=O)[nH]c1C2 [Example 20, (5R,9R,11E)-5-(3-(pyridin-4-yl)prop-2-en-1-ylideneamino)-11-ethylidene-5,6,9,10-tetrahydro-7-methyl-5,9-methanocycloocta[b]pyridin-2(1H)-one] | 25.0 ± 5.18 | 12.6 ± 2.42 | 
